Assay results: the supplement of paper PMC10307832

Experiments:
Assay in all cases: relative viability (nuclei count vs DMSO), 5 days (fraction); higher = more cells survive
[1] = compound: O=C(O)c1ccc2c(c1)nc(Nc1cccc(Cl)c1)c1ccncc12 [Silmitasertib] + Nc1nc2[nH]cc(CCc3ccc(C(=O)N[C@@H](CCC(=O)O)C(=O)O)cc3)c2c(=O)[nH]1 [Pemetrexed] (partner 0.2 µM)
Summary of the method: (§1)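 Nuclei were stained with Hoechst during a one-step fixation (final 0.05% Triton X-100, 1% formaldehyde, 1 ug/ml Hoechst) carried out 5 days after dosing, then counted on 4× images. The cells, lung cancer lines in 1536-well plates, had been dosed by pin tool the day after seeding with one drug alone or a fixed anchor-drug dose plus five library-drug doses (not always all listed) in √10 steps. Relative viability is the nuclei count in treated wells divided by that in vehicle wells, and each value is the median of duplicate plates.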

[2] = compound: O=C(O)c1ccc2c(c1)nc(Nc1cccc(Cl)c1)c1ccncc12 [Silmitasertib] + CC(=O)c1c(C)c2cnc(Nc3ccc(N4CCNCC4)cn3)nc2n(C2CCCC2)c1=O [Palbociclib] (partner 0.5 µM)
Summary of the method: as §1

[3] = compound: O=C(O)c1ccc2c(c1)nc(Nc1cccc(Cl)c1)c1ccncc12 [Silmitasertib] + CS(=O)(=O)N1CCN(Cc2cc3nc(-c4cccc5[nH]ncc45)nc(N4CCOCC4)c3s2)CC1 [Pictilisib] (partner 1 µM)
Summary of the method: as §1

[4] = compound: O=C(O)c1ccc2c(c1)nc(Nc1cccc(Cl)c1)c1ccncc12 [Silmitasertib] + CS(=O)(=O)CCNCc1ccc(-c2ccc3ncnc(Nc4ccc(OCc5cccc(F)c5)c(Cl)c4)c3c2)o1 [Lapatinib] (partner 2 µM)
Summary of the method: as §1

[5] = compound: O=C(O)c1ccc2c(c1)nc(Nc1cccc(Cl)c1)c1ccncc12 [Silmitasertib] + CC(C)C[C@H](NC(=O)[C@H](Cc1ccccc1)NC(=O)c1cnccn1)B(O)O [Bortezomib] (partner 0.002 µM)
Summary of the method: as §1

| Cell Line | relative viability ([1]; first compound 0.04 µM) | relative viability ([1]; first compound 0.4 µM) | relative viability ([1]; first compound 1.265 µM) | relative viability ([1]; first compound 4 µM) | relative viability ([2]; first compound 0.04 µM) | relative viability ([2]; first compound 0.4 µM) | relative viability ([2]; first compound 1.265 µM) | relative viability ([2]; first compound 4 µM) | relative viability ([3]; first compound 0.04 µM) | relative viability ([3]; first compound 0.4 µM) | relative viability ([3]; first compound 1.265 µM) | relative viability ([3]; first compound 4 µM) | relative viability ([4]; first compound 0.04 µM) | relative viability ([4]; first compound 0.4 µM) | relative viability ([4]; first compound 1.265 µM) | relative viability ([4]; first compound 4 µM) | relative viability ([5]; first compound 0.04 µM) | relative viability ([5]; first compound 0.4 µM) | relative viability ([5]; first compound 1.265 µM) | relative viability ([5]; first compound 4 µM) |
| --- | --- | --- | --- | --- | --- | --- | --- | --- | --- | --- | --- | --- | --- | --- | --- | --- | --- | --- | --- | --- |
| 201T | 0.381 | 0.229 | 0.341 | 0.381 | 0.353 | 0.346 | 0.37 | 0.387 | 0.739 | 0.665 | 0.68 | 0.694 | 1.04 | 1.04 | 1.06 | 1.14 | 1.03 | 1.1 | 1.16 | 1.2 |
| A549 |  |  |  |  |  |  |  |  | 0.582 | 0.566 | 0.497 | 0.513 | 1.23 | 1.08 | 0.781 | 0.736 |  |  |  |  |
| A-427 | 1.04 | 0.826 | 1.05 | 0.669 | 0.555 | 0.451 | 0.583 | 0.517 | 0.858 |  | 0.521 | 0.238 | 1.06 |  | 1.24 | 0.573 | 1.1 |  | 1.24 | 0.703 |
| ABC-1 |  |  |  |  | 1.09 | 0.86 | 0.555 | 0.674 | 1.12 | 0.561 | 0.303 | 0.345 | 1.19 | 0.848 | 0.58 | 0.884 | 0.402 | 0.353 | 0.281 | 0.226 |
| BEN | 0.905 | 0.715 | 0.703 | 0.609 | 0.511 | 0.394 | 0.432 | 0.519 | 0.628 | 0.524 | 0.493 | 0.476 | 0.691 | 0.637 | 0.589 | 0.445 | 0.9 | 0.584 | 0.644 | 0.599 |
| CAL-12T | 1.35 | 1.06 | 0.889 | 0.818 | 0.408 | 0.382 | 0.313 | 0.194 | 0.532 | 0.394 | 0.34 | 0.232 | 0.776 | 0.62 | 0.533 | 0.464 | 1.12 | 0.949 | 0.777 | 0.709 |
| COR-L23 | 0.206 | 0.223 | 0.181 | 0.192 | 0.316 | 0.251 | 0.261 | 0.207 | 0.945 | 0.586 | 0.636 | 0.248 | 1.15 | 0.792 | 0.92 | 0.457 | 1.15 | 0.723 | 0.919 | 0.932 |
| COR-L 105 | 1.05 | 1.19 | 0.951 | 0.785 | 0.43 | 0.426 | 0.396 | 0.399 | 0.463 | 0.377 | 0.46 | 0.419 | 0.338 | 0.312 | 0.311 | 0.349 | 0.803 | 0.708 | 0.64 | 0.414 |
| ChaGo-K-1 | 0.265 | 0.24 | 0.253 | 0.275 | 0.995 | 0.674 | 0.896 | 0.929 | 1.26 | 0.59 | 0.607 | 0.486 |  |  |  |  | 1.32 | 0.934 | 0.957 | 0.537 |
| EKVX | 0.394 |  | 0.383 | 0.338 | 0.439 |  | 0.336 | 0.423 | 0.491 | 0.356 | 0.373 | 0.383 | 0.236 | 0.192 | 0.157 | 0.144 | 1.12 | 0.686 | 0.928 | 0.59 |
| EMC-BAC-2 | 0.455 | 0.319 | 0.423 | 0.369 | 0.521 | 0.448 | 0.378 | 0.292 | 0.568 | 0.472 | 0.371 | 0.325 | 0.963 | 0.884 | 0.66 | 0.586 | 1.05 | 0.999 | 1.06 | 0.784 |
| EPLC-272H | 0.374 | 0.359 | 0.385 | 0.122 | 0.319 |  | 0.343 | 0.304 | 0.424 |  | 0.268 | 0.169 | 1.09 |  | 0.666 | 0.122 | 0.906 |  | 0.573 | 0.491 |
| H3255 | 0.602 | 0.5 | 0.394 | 0.499 | 0.319 | 0.348 | 0.316 | 0.294 | 0.537 | 0.448 | 0.414 | 0.345 | 0.239 | 0.227 | 0.204 | 0.169 | 0.937 | 0.848 | 0.741 | 0.36 |
| HARA | 0.268 | 0.215 | 0.213 | 0.235 | 0.389 | 0.252 | 0.201 | 0.261 | 0.603 | 0.41 | 0.334 | 0.257 | 0.901 | 0.696 | 0.608 | 0.592 | 1.12 | 0.812 | 0.949 | 0.766 |
| HCC-15 | 0.242 | 0.229 | 0.216 | 0.215 | 0.77 | 0.491 | 0.564 | 0.367 | 0.772 | 0.535 | 0.493 | 0.238 | 0.91 | 0.52 | 0.676 | 0.321 | 1.02 | 0.655 | 0.856 | 0.408 |
| HCC-44 | 0.63 | 0.667 | 0.71 | 0.661 | 0.975 | 1.06 | 1.01 | 0.959 | 0.579 | 0.452 | 0.549 | 0.351 | 0.968 | 0.916 | 1.02 | 0.699 | 0.858 | 0.753 | 0.883 | 0.49 |
| HCC-78 | 0.91 | 0.886 | 0.613 | 0.918 | 0.521 | 0.432 | 0.497 | 0.455 | 0.23 | 0.231 | 0.226 | 0.205 | 1.15 | 0.511 | 0.187 | 0.322 | 0.609 | 0.333 |  | 0.551 |
